Results from ChEMBL document CHEMBL4184201, “Inhibition of protein tyrosine phosphatase 1B (PTP1B) and α-glucosidase by xanthones from Cratoxylum cochinchinense, and their kinetic characterization” (Bioorg Med Chem, 2018).
Activity calls are given as the source filed them. The calls are words filed in the database; no cut-off is given here.

Assays:
Alpha glucosidase [1] = target: T1, Alpha glucosidase (Homo sapiens, UniProt O43451+P10253+P14410+Q2M2H8); experiment: Inhibition of alpha-glucosidase (unknown origin) using PNP-G as substrate measured for 15 mins by spectrophotometry; format: protein assay
Alpha glucosidase [2] = target: T1, Alpha glucosidase; experiment: Inhibition of alpha-glucosidase (unknown origin) using PNP-G as substrate by Dixon plot analysis; format: protein assay
[3] = target: T2, Tyrosine-protein phosphatase non-receptor type 1 (Homo sapiens, UniProt P18031); experiment: Inhibition of recombinant human PTP1B (1 to 322 residues) expressed in Escherichia coli using P-NPP as substrate after 10 mins by spectrophotometry
T2 sequence (P18031 whole entry): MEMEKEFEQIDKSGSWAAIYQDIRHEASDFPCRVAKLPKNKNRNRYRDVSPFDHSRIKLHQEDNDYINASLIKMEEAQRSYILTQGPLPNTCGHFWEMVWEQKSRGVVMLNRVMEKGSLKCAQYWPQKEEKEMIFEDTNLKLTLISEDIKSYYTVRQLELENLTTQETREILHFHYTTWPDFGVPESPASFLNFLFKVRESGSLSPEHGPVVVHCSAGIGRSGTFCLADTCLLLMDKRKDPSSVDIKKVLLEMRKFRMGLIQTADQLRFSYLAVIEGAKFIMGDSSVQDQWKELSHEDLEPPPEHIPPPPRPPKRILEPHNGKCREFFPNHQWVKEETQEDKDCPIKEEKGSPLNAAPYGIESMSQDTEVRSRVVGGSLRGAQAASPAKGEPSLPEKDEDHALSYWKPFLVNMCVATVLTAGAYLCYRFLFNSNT

[4] = target: T2, Tyrosine-protein phosphatase non-receptor type 1; experiment: Inhibition of recombinant human PTP1B (1 to 322 residues) expressed in Escherichia coli using P-NPP as substrate after 10 mins by Dixon plot analysis
Alpha glucosidase [5] = target: T1, Alpha glucosidase; experiment: Mixed type inhibition of alpha-glucosidase (unknown origin) using PNP-G as substrate by Lineweaver-Burk plot analysis; format: protein assay
[6] = target: T3, Tyrosine-protein phosphatase non-receptor type 1 (Homo sapiens) (UniProt P18031); experiment: Competitive inhibition of recombinant human PTP1B (1 to 322 residues) expressed in Escherichia coli using P-NPP as substrate after 10 mins by Lineweaver-Burk plot analysis
T3 sequence (whole entry): T2 sequence (P18031 whole entry)

[7] = target: T2, Tyrosine-protein phosphatase non-receptor type 1; experiment: Time dependent inhibition of recombinant human PTP1B (1 to 322 residues) expressed in Escherichia coli using P-NPP as substrate preincubated with enzyme for 30 mins by UV-spectrophotometric method; details: read-out: Ki(app)
[8] = target: T3, Tyrosine-protein phosphatase non-receptor type 1 (Homo sapiens); experiment: Inhibition of recombinant human PTP1B (1 to 322 residues) expressed in Escherichia coli assessed as forward rate constant for enzyme-inhibitor bound conformation using P-NPP as substrate incubated with enzyme for 30 mins by UV-spectrophotometric method
Alpha glucosidase [9] = target: T1, Alpha glucosidase; experiment: Mixed type inhibition of alpha-glucosidase (unknown origin) assessed as enzyme-substrate-inhibitor complex formation using PNP-G as substrate by Lineweaver-Burk plot analysis; format: protein assay
Alpha glucosidase [10] = target: T1, Alpha glucosidase; experiment: Reversible inhibition of alpha-glucosidase (unknown origin) using PNP-G as substrate measured for 15 mins by spectrophotometry; format: protein assay
[11] = target: T3, Tyrosine-protein phosphatase non-receptor type 1 (Homo sapiens); experiment: Reversible inhibition of recombinant human PTP1B (1 to 322 residues) expressed in Escherichia coli using P-NPP as substrate after 10 mins by spectrophotometry

Compound | IC50 (Alpha glucosidase [1]) [µM] | Ki (Alpha glucosidase [2]) [µM] | IC50 [3] [µM] | Ki [4] [µM] | Mixed-type inhibition (qualitative) (Alpha glucosidase [5]) | inhibition type (Lineweaver-Burk) [6] | Ki [7] [µM] | K [8] [M⁻¹ s⁻¹] | Ki (Alpha glucosidase [9]) [µM] | inhibition (Alpha glucosidase [10]) | inhibition [11] | inhibition (Alpha glucosidase [5])
C=C(C)C(O)CC/C(C)=C/COc1ccc2oc3cc(O)cc(O)c3c(=O)c2c1 (configuration not stated) | 13.7 | 13 | 25.2 | 29.5 | Active | Active | – | – | – | – | – | –
C=C(CCC=C(C)C)C(O)Cc1c(O)c(CC=C(C)C)c(O)c2c(=O)c3cc(O)ccc3oc12 (configuration not stated) | 10.1 | 8.2 | 12.5 | 8.9 | Active | Active | – | – | – | – | – | –
CC(C)=CCC/C(C)=C/Cc1c(O)c(CC=C(C)C)c(O)c2c(=O)c3cc(O)ccc3oc12 [COCHINCHINONE A] | 17.4 | 13.4 | 5.2 | 3.1 | Active | Active | – | – | – | – | – | –
COc1c(O)ccc2c(=O)c3c(O)cc4c(c3oc12)C(C)(C)C(CO)O4 (configuration not stated) | 72.7 | 33.9 | 52.5 | 32.7 | Active | Active | – | – | – | – | – | –
CC(C)=CCC/C(C)=C/COc1ccc2oc3cc(O)cc(O)c3c(=O)c2c1 | 20.6 | 17.7 | 35.1 | 19.9 | Active | Active | – | – | – | – | – | –
CC(C)=CCCC(C)(O)C1Cc2c(c(CC=C(C)C)c(O)c3c(=O)c4cc(O)ccc4oc23)O1 (configuration not stated) | 16.1 | 9.9 | 7.2 | 3.4 | Active | Active | – | – | – | – | – | –
C=C(C)C(O)Cc1c(O)c(C/C=C(\C)CCC=C(C)C)c2oc3ccc(O)cc3c(=O)c2c1O (configuration not stated) | 4.8 | 4.2 | 2.4 | 2.1 to 2.4 | Active | Active | 2.4 | 50000 | 6.6 | Active | Active | –
CC(C)=CCc1c(O)c(CC=C(C)C)c2oc3ccc(O)cc3c(=O)c2c1O | 25.5 | 19.2 | 10.5 | 11.1 | Active | Active | – | – | – | – | – | –
CC(C)=CCc1c(O)cc2oc3cc(O)c(O)c(CC=C(C)C)c3c(=O)c2c1O | 1.7 | 1.4 | 2.8 | 2.7 | – | Active | – | – | – | – | – | Active
COc1c(O)cc2oc3cc(O)c(CCC(C)(C)O)c(O)c3c(=O)c2c1CC=C(C)C | 30.7 | 25.1 | 24.1 | 22.9 | Active | Active | – | – | – | – | – | –
CC(C)=CCC/C(C)=C/COc1cc2oc3ccc(O)cc3c(=O)c2c(O)c1CC=C(C)C | 28.4 | 27.2 | 7.05 | 5.1 | Active | Active | – | – | – | – | – | –
COc1c(O)cc2oc3cc(O)c(CC=C(C)C)c(O)c3c(=O)c2c1CC=C(C)C [MANGOSTIN] | 5.7 | 7.3 | 5.5 | 3.2 | Active | Active | – | – | – | – | – | –
